“Also recorded” adds a separate entry of the source.
How the values were obtained:
KPC mice = KPC mice with established PDAC treated with gemcitabine with or without bethanechol; assay type: in vivo, mouse; details: KPC mice
Excerpt: Next, the role of cholinergic signaling in advanced pancreatic cancer was investigated using the genetically engineered KPC (K-Ras^+/LSL-G12D;p53^+/R172H;Pdx-1-Cre) mouse model, which develops ductal adenocarcinoma by 17-19 weeks (Olive et al., 2009, Hingorani et al., 2005).
K-Ras^+/LSL-G12D, p53^+/R172H, and Pdx-1-Cre mice were provided by Dr. Kenneth Olive (Columbia University). M1RKO mice were purchased from the Jackson Laboratory. KC mice and KPC mice were crossed with M1RKO mice. For several experiments, KC mice received pyloroplasty with or without vagotomy at 8 weeks and KC+VxPP mice were treated with or without bethanechol (400 μg/ml) after surgery immediately. They were sacrificed at 20 weeks. In addition, KPC mice were treated with gemcitabine biweekly and with or without bethanechol when the tumor size of 3-5 mm detected using ultrasound. They were sacrificed when the mice were moribund. For liver metastatic experiments, WT type C57/B6 mice received spleen injection and hemi-splenectomy. […] They were sacrificed when the mice were moribund.
Next, the role of cholinergic signaling in established PDAC was investigated using the KPC mouse model, which develops PDAC at a median age of 17-19 weeks^2, 29. KPC mice with pancreatic tumors that measured 3-5 mm in diameter on ultrasound were randomized to treatment with gemcitabine (GEM) alone, or GEM+bethanechol (FIG. 8I).
LSL-Kras^+/LSL-G12D, LSL-Trp53^+/R172H, and Pdx1-Cre mice were bred by Dr. Kenneth P. Olive and co-workers. Chrm1KO mice (C57BL/6-Chrm1tm1 Stl/J, (M1RKO) mice^1 were purchased from the Jackson Laboratory. KC mice and KPC mice were crossed with M1RKO mice. In the vagotomy experiments, KC mice received pyloroplasty with or without vagotomy at 8 weeks, and some KC+VxPP mice were treated with bethanechol ([…] in drinking water) immediately after surgery and then sacrificed at 20 weeks. KPC mice in treatment studies were palpated weekly for tumors in the pancreas. Once a tumor was suspected, KPC mice were screened by VEVO 2100—Ultrasound Imaging System (FUJIFILM VisualSonics) for pancreatic cancer. KPC mice were treated with gemcitabine, given by i.p. injection 100 mg/kg biweekly, with or without bethanechol, when a tumor size of 3-5 mm was detected using ultrasound. Mice were sacrificed when the mice were moribund. NOD/SCID mice were implanted with Panc1 cells subcutaneously and sacrificed at 30 days after implantation. For liver metastatic experiments, WT type C57/B6 mice received a splenic injection of labeled Panc02 cells, followed by hemi-splenectomy. The mice were then divided into three groups. […] Mice were then sacrificed when moribund. At necropsy, hepatic metastases that could clearly be identified as tumor nodules on gross inspection were separated. All animal studies and procedures were approved by the IACUC committee at Columbia University. All mice were bred under specific pathogen free conditions. Comparisons were made with age- and sex-matched control animals.
CD44, p-EGFR, p-PI3K, p-ERK, and Ki67 positive cells were quantified in at least five high power fields from at least 3 mice per group. Total cells per field were counted via morphometric analysis using ImageJ and the ratio of positive cells to total cell number calculated.

[1] = tested on: murine PDAC cell lines (Panc02, K8282); assay: MTT assay, murine PDAC cell lines; assay type: cell-based, mouse; details: for proliferation (MTT assay): 72 hours, 0.5% FBS medium
Procedure: (§1) Cell proliferation in each cell line was assessed with a 3-(4,5-dimethylthiazol-2yl)-2,5-diphenyltetrazolium bromide (MTT) assay kit (Sigma) in accordance with the manufacturer's instructions. 3×10^3 cells were grown in 96-well plate to around ˜70% confluent, changed the 0.5% FBS medium, added the drugs respectively and incubated them for further 72 hrs incubation in a typical CO2 incubator (˜20% O2). Treated cells were rinsed twice with PBS, incubated in 10 ll MTT solution for 4 hr at 37° C., and 100 uL DMSO was added to each well. The absorbance of each well was measured at 570 nm using Tilter-Tech 96-well multiscanner (Becton Dickinson, Heidelberg, Germany). The relative number of viable cells compared with the number of cells without drug treatment was expressed as percent cell viability using the following formula:
(§2) Cell proliferation in each cell line was assessed with a 3-(4,5-dimethylthiazol-2yl)-2,5-diphenyltetrazolium bromide (MTT) assay kit (Sigma) in accordance with the manufacturer's instructions. 3×10^3 cells were grown in 96-well plate to ˜70% confluency, the media was changed to 0.5% FBS medium, the respective drugs were added, and they were incubated for an additional 72 hours in a CO2 incubator (˜5% CO2). Treated cells were rinsed twice with PBS, incubated in 10 ul MTT (5 mg/ml PBS) solution for 4 hours at 37° C., and 100 uL DMSO was then added to each well. The absorbance of each well was measured at 570 nm using a Tilter-Tech 96-well multiscanner (Becton Dickinson, Heidelberg, Germany). The relative number of viable cells compared with the number of cells without drug treatment was expressed as percent cell viability using the following formula: cell viability (%)=A570 of treated cells/A570 of untreated cells.

[2] = tested on: human PDAC cell lines (MiaPaca2, Panc1); assay: MTT assay, human PDAC cell lines; assay type: cell-based; details: for proliferation (MTT assay): 72 hours, 0.5% FBS medium
Procedure: as §1, §2

[3] = tested on: Kras^+/LSL-G12D mutant spheres; assay: 3D Matrigel sphere culture of Kras mutant (Ad-Cre) pancreatic acinar cells; assay type: cell-based, mouse; details: for number of spheres / size of spheres: day 5, pilocarpine 1 mM, scopolamine 10 μM, McN-34A 50 μM, pirenzepine 50 μM, vs controls; for sphere formation and growth of Kras mutant spheres: oncogenic K-Ras allele activated by adeno-Cre virus
Procedure: Cholinergic stimulation could in theory promote cancer indirectly through effects on stromal cells, or directly through effects on pancreatic epithelial cells. To determine whether cholinergic stimulation promoted tumor development in part through muscarinic receptors on cancer cells, the sphere forming capacity of K-Ras^+/LSL-G12D mutant pancreatic acinar cells was assessed in a 3D Matrigel culture system, with or without muscarinic stimulation. K-Ras^+/LSL-G12D mutant spheres were generated from K-Ras^+/LSL-G12D pancreatic acinar cells by treatment with adenoviral delivered Cre (Ad-Cre).
3D cultures were performed as described previously (Wescott et al., 2009). Organoids were cultured for 5 days before analysis. Adenoviral delivered Cre (Ad-Cre) was added to the cultures and medium was changed after 12 hours. […] Sphere size and […] were analyzed using ImageJ software.
To determine whether cholinergic stimulation suppresses tumor development in part through specific muscarinic receptors on cancer cells, the sphere forming capacity of Kras^+/LSL-G12D pancreatic acinar cells in a 3D Matrigel culture system in the absence and presence of muscarinic agonists and antagonists was assessed. Kras^+/LSL-G12D mutant spheres were generated from Kras^+/LSL-G12D mice by delivery of an adenoviral Cre (Ad-Cre).
3D cultures were performed as described previously^18. Organoids were cultured for 5 days before analysis. Adenoviral delivered Cre (Ad-Cre) was added to the cultures and medium was changed after 12 hours. […] Sphere size and number were analyzed using ImageJ software.

murine K8282 cells = assay: Western blot of EGFR/MAPK and PI3K/AKT signaling, K8282; assay type: cell-based, mouse; details: for phosphorylation of EGFR, BRAF, ERK1/2, PI3K and AKT kinases (western blot): 72 hours; for ratios of p-EGFR/EGFR, p-BRAF/BRAF, p-ERK/ERK, p-PI3K/PI3K and p-AKT/AKT (densitometry): single agent alone
Procedure: (§3) To analyze EGFR and the MAPK and PI3K-Akt pathway in human and murine pancreatic cancer cell lines, cells were grown in 12-well plate to around ˜70% confluent, changed the 0.5% FBS medium, added the drugs respectively and incubated them for further 72 hrs incubation in a typical CO2 incubator (˜20% O2). After removing the medium, cells were washed twice with PBS, and protein extraction was performed on ice using RIPA buffer with protease inhibitor (Complete) (Roche) cocktail and phosphatase inhibitor (phosSTOP) (Roche). Protein samples were subsequently separated in 10% Bis-Tris Gel NuPAGE® electrophoresis using MES SDS Running Buffer (Invitrogen, CA, USA). After transfer to nitrocellulose, membranes were blocked with 5% BSA, and samples were probed with the following primary antibodies: p-EGFR (Cell Signaling), EGFR (Cell Signaling), p-BRAF (Cell Signaling), BRAF (Cell Signaling), p-ERK1/2 (phosphorylated p44/42 MAPK) (Thr202/Tyr204) (Cell Signaling), ERK1/2 (p44/42 MAPK) (Thr202/Tyr204) (Cell Signaling), p-PI3K (Cell Signaling), PI3K (Cell Signaling), p-Akt (Cell Signaling), Akt (Cell Signaling), and β-actin (Cell Signaling) followed by horseradish peroxidase-coupled secondary antibody. Immunoreactive bands were visualized using 5-bromo-4-chloro-3-indolyl phosphate/nitro blue tetrazolium and bands were quantified with ImageJ.
(§4) To analyze EGFR, MAPK and PI3K-AKT pathways in human and murine pancreatic cancer cell lines, cells were grown in 12-well culture plates to ˜70% confluency. The medium was then changed to 0.5% FBS medium, the respective drugs were added, and they were incubated for an additional 72 hours in a CO2 incubator (˜5% CO2). After removing the medium, cells were washed twice with PBS, and protein extraction was performed on ice using RIPA buffer with protease inhibitor (Complete, Roche) cocktail and a phosphatase inhibitor (phosSTOP, Roche). Protein samples were subsequently separated by 10% Bis-Tris Gel NuPAGE® electrophoresis using MES SDS Running Buffer (Invitrogen, CA, USA). After transfer to nitrocellulose, membranes were blocked with 5% BSA, and samples were probed with the following primary antibodies: p-EGFR (Cell Signaling), EGFR (Cell Signaling), p-BRAF (Cell Signaling), BRAF (Cell Signaling), p-ERK1/2 (phosphorylated p44/42 MAPK) (Thr202/Tyr204) (Cell Signaling), ERK1/2 (p44/42 MAPK) (Thr202/Tyr204) (Cell Signaling), p-PI3K (Cell Signaling), PI3K (Cell Signaling), p-AKT (Cell Signaling), AKT (Cell Signaling), and β-actin (Cell Signaling) followed by horseradish peroxidase-coupled secondary antibody. Immunoreactive bands were visualized using 5-bromo-4-chloro-3-indolyl phosphate/nitro blue tetrazolium and bands were quantified with ImageJ.

[4] = tested on: Organoid cultures derived from LSL-K-Ras^G12D pancreata not treated by an Adeno-Cre virus; assay type: cell-based; details: no Adeno-Cre virus (Kras not activated)
human Panc1 cells = assay: Western blot of EGFR/MAPK and PI3K/AKT signaling, Panc1; assay type: cell-based; details: for phosphorylation of EGFR, BRAF, ERK1/2, PI3K and AKT kinases (western blot): 72 hours; for ratios of p-EGFR/EGFR, p-BRAF/BRAF, p-ERK/ERK, p-PI3K/PI3K and p-AKT/AKT (densitometry): single agent alone
Procedure: as §3, §4

Chrm1 [5] = assay: qRT-PCR of muscarinic receptor expression, murine PDAC cell lines; assay type: cell-based, mouse; details: murine PDAC cell lines (Panc02 and K8282), compared to control
CHRM1 [6] = assay: qRT-PCR of muscarinic receptor expression, human PDAC cell lines; assay type: cell-based; details: human PDAC cell lines (MiaPaca2 and Panc1), compared to control

Row | SMILES | overall survival (KPC mice; GEM with or without bethanechol) [days] | overall survival (KPC mice; tumors 3-5 mm at enrollment, GEM biweekly i.p. with or without bethanechol) [days] | proliferation (MTT assay) [1] | increase in proliferation due to muscarinic antagonists ([1]; agonist added to antagonist) | proliferation (MTT assay) [2] | increase in proliferation due to muscarinic antagonists ([2]; agonist added to antagonist) | number of spheres [3] | size of spheres [3] | sphere formation and growth of Kras mutant spheres [3] | phosphorylation of EGFR, BRAF, ERK1/2, PI3K and AKT kinases (western blot) (murine K8282 cells) | ratios of p-EGFR/EGFR, p-BRAF/BRAF, p-ERK/ERK, p-PI3K/PI3K and p-AKT/AKT (densitometry) (murine K8282 cells) | sphere forming capacity / growth of WT spheres [4] | phosphorylation of EGFR, BRAF, ERK1/2, PI3K and AKT kinases (western blot) (human Panc1 cells) | ratios of p-EGFR/EGFR, p-BRAF/BRAF, p-ERK/ERK, p-PI3K/PI3K and p-AKT/AKT (densitometry) (human Panc1 cells) | Chrm1 expression (Chrm1 [5]) | Chrm1 expression (CHRM1 [6])
1 | Nc1ccn([C@@H]2O[C@H](CO)[C@@H](O)C2(F)F)c(=O)n1 [GEM] | 29 | 29 | – | – | – | – | – | – | – | – | – | – | – | – | – | –
2 | C[N+](C)(C)CC#CCOC(=O)Nc1cccc(Cl)c1.[Cl-] [McN-34A] | – | – | suppressed | blocked; also recorded: inhibited to some extent | suppressed | blocked; also recorded: inhibited to some extent | significantly fewer | smaller | suppressed | significantly less phosphorylated | significantly decreased | increased | significantly less phosphorylated | significantly decreased | – | –
3 | CN1CCN(CC(=O)N2c3ccccc3C(=O)Nc3cccnc32)CC1 [pirenzepine] | – | – | increased; also recorded: stimulated | – | increased; also recorded: stimulated | – | significantly more | larger | stimulated | significantly more phosphorylated | increased | significantly prevents | significantly more phosphorylated | increased | – | –
4 | CN1[C@@H]2C[C@@H](OC(=O)[C@H](CO)c3ccccc3)C[C@H]1[C@@H]1O[C@@H]12 [scopolamine] | – | – | increased | – | increased; also recorded: stimulated | – | significantly more; also recorded: increased | larger | increase | significantly more phosphorylated | – | – | significantly more phosphorylated | – | increased; also recorded: higher | increased; also recorded: higher

Source: patent publication US11344534B2, “Cholinergic agonism for the treatment of pancreatic cancer” (priority 2017, dated 2022)
